“And” between values parts separate entries of the source, which are not always exact repeats. Identical values can stand only once.
How the values were obtained:
[1] = system: B. burgdorferi sensu stricto (B31 strain); assay: In-vitro assessment of cefovecin efficacy (live spirochetes in culture by light microscopy); format: cell-based, Borrelia burgdorferi; settings: for Number of B. burgdorferi spirochetes per field-of-view (geometric mean per ten field of views): cultures A, C
Protocol: B. burgdorferi sensu stricto (B31 strain) was cultured. The experimental (triplicate) groups included a control, 0.02 μg/mL cefovecin, and 2 μg/mL cefovecin. Cultures were viewed by light microscopy at 0, 6, 24, 30, 48, and 54 hours post inoculation to assess number of live spirochetes (Table 1).

B. burgdorferi [2] = assay: Study B: microscopic examination of joints and skin at necropsy; format: in vivo, beagle dogs; settings: for Number of Joints with Changes as Described for Lyme disease: N = 8
Protocol: (§1) Thirty-two (18 male and 14 female) beagle dogs were sero-negative for Borrelia burgdorferi, not vaccinated with any Borrelia spp vaccines, and acclimated at the study facility for seven days. The study was conducted under National Research Council guidelines (1996). […] Field-caught Ixodes from the northeast USA were placed on the dogs without containment chambers for 10 days; after ticks fed to repletion, dogs were treated with two applications of an approved topical acaricide with a 30-day interval between applications.
(§2) Forty days post-challenge, and prior to antibiotic treatments, blood was collected from each dog as were two skin biopsy punch samples near tick attachment sites. Blood was collected approximately monthly post-treatment. Skin biopsies were taken near the tick attachment site on Days 48/49, 118, 146, 180, and 315. Serum antibodies to Borrelia were assayed using the IDEXX SNAP-4Dx and QC6 ELISA. In cooperation with Cornell University, serum samples were analyzed using fluorescent-bead-based multiplex assays detecting antibodies against B. burgdorferi outer surface proteins OspA, OspC, and OspF. Data were expressed as median fluorescent intensities (MFI), and shown to be specific and sensitive to provide interpretative guidelines regarding infection. The skin biopsies were collected for a polymerase chain reaction (PCR; FlaB) assay and cultured for spirochete detection. At the end of the study, blood and skin biopsies were collected and synovial tissue from the joints were harvested at necropsy.
(§3) On Day 75 and Day 89 Convenia was administered to the eight dogs in T04 (8 mg/kg bodyweight; subcutaneous injection). The other treated groups received their respective regimens daily and orally for 30 days from Days 75 to 104. […] Dogs in T01 served as infected, untreated, controls. Inter-treatment comparisons to evaluate antibiotic efficacy included clinical signs, serology, culture results and pathology.
At necropsy ten joints were harvested per each dog, formalin-fixed, stained and examined microscopically. Joints included the carpus, elbow, shoulder, stifle and tarsus on both the right and left limbs. Further, a section of skin near tick attachment sites was evaluated from each dog. There were two dogs in the Convenia group (25%) with tissues showing changes as described for Lyme disease, compared to seven controls (87.5%) and three (37.5%) to four (50.0%) dogs in the other antibiotic-treated groups (Table 7). […] The Convenia group had the lowest incidence of joint changes with six affected of 80.

B. burgdorferi [3] = assay: Study B: QC6 ELISA in tick-infected dogs; format: in vivo, beagle dogs; settings: 8 dogs/group
Description: Three outer surface proteins (Osp) on B. burgdorferi are important for diagnosis and prevention, and are expressed by the organism in response to its local environment. […] OspF is another surface protein that is generally observed in late-stage disease. The C in […] refers to a 25-amino acid, C6 peptide in the sixth invariable region of an outer membrane lipoprotein (VIsE). Antibody against C6 is highly accurate as a serologic diagnosis of Lyme disease independent of a subject's (e.g., canine) vaccination status. Further, the generation of C6 antibodies implies an active infection with viable spirochetes. Serological methods for detecting B. burgdorfer/Lyme disease were conducted using the IDEXX qualitative SNAP-4Dx ELISA and the Quantitative C6 (Quant C6 or QC6) diagnostic kits, which are enzyme linked immunosorbent assays against the previously described 25-amino-acid C6 peptide. QC6 ELISA data, units/mL, are useful for guidance in initiating and evaluating response to therapy (See Levy S A, O'Connor T P, Hanscom J L, Shields P, et al. Quantitative measurement of a C6 antibody following antibiotic treatment of Borrelia burgdorferi antibody-positive, nonclinical dogs. Clin Vacc Immunol 2008; 15(1):115-119 and Littman M P, Goldstein R E, Labato M A, et al. ACVIM Small Animal Concensus Statement on Lyme Disease in Dogs: Diagnosis, Treatment and Prevention. J Vet Intern Med 2006; 20: 422-434).
as §1, §2, §3

[4] = feline; cited from earlier work
[5] = joints, skin, 8 dogs/group, necropsy

CO/N=C(\C(=O)N[C@@H]1C(=O)N2C(C(=O)[O-])=C([C@@H]3CCCO3)CS[C@H]12)c1csc(N)n1.[Na+] [Convenia, (6R,7R)-7-[[(2Z)-(2-amino-4-thiazolyl)(methoxyimino)acetyl]-amino]-8-oxo-3-[(2S)-tetrahydro-2-furanyl]-5-thia-1-azabicyclo[4.2.0]oct-2-ene-2-carboxylic acid, monosodium salt]
Number of B. burgdorferi spirochetes per field-of-view (geometric mean per ten field of views) ([1]; 0.02 μg/mL, 0 hours): 0 | Number of B. burgdorferi spirochetes per field-of-view (geometric mean per ten field of views) ([1]; 0.02 μg/mL, 24 hours, listed as cefovecin, monosodium salt): 1.7 and 2.1 and 2.0 | Number of B. burgdorferi spirochetes per field-of-view (geometric mean per ten field of views) ([1]; 0.02 μg/mL, 48 hours, listed as cefovecin, monosodium salt): 7.2 and 4.1 and 5.9 | Number of B. burgdorferi spirochetes per field-of-view (geometric mean per ten field of views) ([1]; 0.02 μg/mL, 54 hours, listed as cefovecin, monosodium salt): 8.1 and 10.2 and 9.0 | Retardation of growth of B. burgdorferi ([1]; 0.02 μg/mL, in 54 hours): at least 30% | Time after which B. burgdorferi is eliminated in culture ([1]; 2 μg/mL): about 24 hours | Number of B. burgdorferi spirochetes per field-of-view (geometric mean per ten field of views) ([1]; 2 μg/mL, 0 hours): 0 | Number of B. burgdorferi spirochetes per field-of-view (geometric mean per ten field of views) ([1]; 2 μg/mL, 30 hours): 0 | Number of B. burgdorferi spirochetes per field-of-view (geometric mean per ten field of views) ([1]; 2 μg/mL, 48 hours): 0 | Number of B. burgdorferi spirochetes per field-of-view (geometric mean per ten field of views) ([1]; 2 μg/mL, 54 hours): 0 | Number of Joints with Changes as Described for Lyme disease, Cumulative (B. burgdorferi [2]; 80 total/group): 6 | Number of Joints with Changes as Described for Lyme disease (B. burgdorferi [2]; Carpus L): 1 | Number of Joints with Changes as Described for Lyme disease (B. burgdorferi [2]; Carpus R): 1 | Number of Joints with Changes as Described for Lyme disease (B. burgdorferi [2]; Elbow L): 0 | Number of Joints with Changes as Described for Lyme disease (B. burgdorferi [2]; Elbow R): 1 | Number of Joints with Changes as Described for Lyme disease (B. burgdorferi [2]; Shoulder L): 0 | Number of Joints with Changes as Described for Lyme disease (B. burgdorferi [2]; Shoulder R): 0 | Number of Joints with Changes as Described for Lyme disease (B. burgdorferi [2]; Stifle L): 1 | Number of Joints with Changes as Described for Lyme disease (B. burgdorferi [2]; Stifle R): 2 | Number of Joints with Changes as Described for Lyme disease (B. burgdorferi [2]; Tarsus L): 0 | Number of Joints with Changes as Described for Lyme disease (B. burgdorferi [2]; Tarsus R): 0 | No Tissue Changes, # Dogs (B. burgdorferi [2]; [5]): 6 | No Tissue Changes, % (B. burgdorferi [2]; [5]): 75% | Tissue Changes Described for Lyme Disease, # Dogs (B. burgdorferi [2]; [5]): two | Tissue Changes Described for Lyme Disease, % (B. burgdorferi [2]; [5]): 25% | Tissue Changes Described for Lyme Disease, # Dogs (B. burgdorferi [2]; joints, skin, 8 dogs/group, necropsy, listed as T04, monosodium salt): 2 | Incidence of joint lesions, lower than in dogs administered doxycycline or amoxicillin orally for 30 days (B. burgdorferi [2]; microscopic evaluation of articular joints): 2 fold | Dogs Sero-converted to B. burgdorferi per QC6 ELISA (≧30 U/mL), (%) (B. burgdorferi [3]; Day 48 (pre-treatment)): 75.0% | Number of Dogs Sero-converted to B. burgdorferi per QC6 ELISA (≧30 U/mL), No. (B. burgdorferi [3]; Day 48 (pre-treatment)): 6 | Dogs Sero-converted to B. burgdorferi per QC6 ELISA (≧30 U/mL), (%) (B. burgdorferi [3]; Day 111): 75.0% | Number of Dogs Sero-converted to B. burgdorferi per QC6 ELISA (≧30 U/mL), No. (B. burgdorferi [3]; Day 111): 6 | Dogs Sero-converted to B. burgdorferi per QC6 ELISA (≧30 U/mL), (%) (B. burgdorferi [3]; Day 145): 0.0% | Number of Dogs Sero-converted to B. burgdorferi per QC6 ELISA (≧30 U/mL), No. (B. burgdorferi [3]; Day 145): 0 | Dogs Sero-converted to B. burgdorferi per QC6 ELISA (≧30 U/mL), (%) (B. burgdorferi [3]; Day 179): 0.0% | Number of Dogs Sero-converted to B. burgdorferi per QC6 ELISA (≧30 U/mL), No. (B. burgdorferi [3]; Day 179): 0 | Dogs Sero-converted to B. burgdorferi per QC6 ELISA (≧30 U/mL), (%) (B. burgdorferi [3]; Day 221): 0.0% | Number of Dogs Sero-converted to B. burgdorferi per QC6 ELISA (≧30 U/mL), No. (B. burgdorferi [3]; Day 221): 0 | Dogs Sero-converted to B. burgdorferi per QC6 ELISA (≧30 U/mL), (%) (B. burgdorferi [3]; Day 251): 0.0% | Number of Dogs Sero-converted to B. burgdorferi per QC6 ELISA (≧30 U/mL), No. (B. burgdorferi [3]; Day 251): 0 | Dogs Sero-converted to B. burgdorferi per QC6 ELISA (≧30 U/mL), (%) (B. burgdorferi [3]; Day 281): 0.0% | Number of Dogs Sero-converted to B. burgdorferi per QC6 ELISA (≧30 U/mL), No. (B. burgdorferi [3]; Day 281): 0 | Dogs Sero-converted to B. burgdorferi per QC6 ELISA (≧30 U/mL), (%) (B. burgdorferi [3]; Day 314): 0.0% | Number of Dogs Sero-converted to B. burgdorferi per QC6 ELISA (≧30 U/mL), No. (B. burgdorferi [3]; Day 314): 0 | Elimination half-life [4]: ~166 h
